Measurements taken from BigSolDB 2.1.

Cc1cc(=O)[nH]c(=S)[nH]1
solubility (mole fraction)
Details	278.15 K	283.15 K	288.15 K	293.15 K	298.15 K	303.15 K	308.15 K	313.15 K	318.15 K	323.15 K
in DMF	0.0117	0.0144	0.0174	0.0207	0.0252	0.0294	0.0346	0.0396	0.0463	0.0538
in DMSO	–	–	–	0.0379	0.0432	0.0491	0.0549	0.0619	0.0692	0.0773
in NMP	0.013	0.0155	0.0181	0.0212	0.0246	0.0288	0.0334	0.0391	0.0454	0.051
in water	2.53e-05	3.23e-05	4.15e-05	5.26e-05	6.68e-05	8.48e-05	0.000106	0.000129	0.000156	0.000187
